Key:
rats [1] = settings: rat, in vivo
rats [2] = settings: rat, in vivo; remark: listed apart in the source

Q: How did the sedative clinical symptoms (rats [1]) turn out when `CC(C)C[C@H](CN)CC(=O)O` [Pregabalin] was run?
A: dose-dependant increase in the level of sedative clinical symptoms

Q: And the “effect on left and right paw withdrawal latencies compared to vehicle control” value (rats [2])?
A: failed to have a significant effect
